# Tests used:
# [1] = target: T1, human sodium channels Nav 1.7 (Homo sapiens, UniProt Q15858); assay: Automated whole-cell voltage-clamp (ScreenPatch 384P) sodium current block, Nav 1.7; assay type: cell-based; conditions: CHO cells stably expressing human Nav 1.7; holding -100 mV, inactivation step -40 mV for 8 seconds, test step 0 mV (TP1A); exposure at least five minutes, room temperature; mean where tested in two or more assays; read-out: Nav1.7 IC50
# T1 construct: expressed in transfected cells
# Protocol: (§1) Biological assays were performed on Chinese hamster ovary (CHO) cells that express human sodium channels Nav 1.8 or Nav 1.7 in a stable manner.
# (§2) The experimental protocol voltage-clamp using the whole cell configuration was established on the automated ScreenPatch® 384P platform (SP384PE, Nanion Technologies, Livingston, NJ) and the results were recorded with a Nanion 384-well Patch Clamp chip (NPC) (Nanion Technologies, Livingston, NJ).
# (§3) Compounds of Formula Ia and Formula Ib were diluted in eight concentrations in the extracellular solution composed of saline solution, buffered with HEPES (mM): NaCl, 137; KCl, 4; CaCl2, 3,8; MgCl2, 1; HEPES, 10; Glucose, 10; pH 7.4. The […], 50; CsF, 90; MgCl2, 5; EGTA, 5; HEPES, 10; pH 7.2. The duration of exposure of each compound with cells expressing Nav 1.7 or Nav 1.8 was at least five minutes, and the assays were performed at room temperature.
# (§4) The measurements of the sodium currents of Nav 1.8 and Nav 1.7 were obtained using the voltage protocol described below: A holding voltage of -100 mV was established followed by an inactivation voltage step at -40 mV for 8 seconds, followed by a step of -100 mV for 20 ms, followed by a 20 ms step for 10 mV for Nav 1.8 or 0 mV for Nav 1.7 (TP1A) before returning to the holding voltage of -100 mV.
# (§5) The protocol was repeated at a frequency of 0.05 Hz and the amplitude of the current was quantified throughout the recording of the TP1A phase. The variation in the amplitude of the peak current was evaluated according to the formula described below, after exposing the cells expressing the channels to each concentration of the different compounds: % Block = (1−(ITP1A,molecule/ITP1A,basal)×100%, [formula] wherein ITP1A,basal and ITP1A,molecule represent the peaks of sodium current input into TP1A before exposure to the compound and in the presence of the compound, respectively.
# (§6) Data were obtained by nonlinear regression (nonlinear least squares) with XLfit for Excel (Microsoft, Redmond, WA).
# (§7) The compounds were tested in at least one assay to obtain the value of CI50. For compounds that were tested in two or more assays, the results are described as the mean of the CI50 values.
# [2] = target: T2, human sodium channels Nav 1.8 (Homo sapiens, UniProt Q9Y5Y9); assay: Automated whole-cell voltage-clamp (ScreenPatch 384P) sodium current block, Nav 1.8; assay type: cell-based; conditions: CHO cells stably expressing human Nav 1.8; holding -100 mV, inactivation step -40 mV for 8 seconds, test step 10 mV (TP1A); exposure at least five minutes, room temperature; mean where tested in two or more assays; read-out: Nav1.8 IC50
# T2 construct: expressed in transfected cells
# Protocol: as §1, §2, §3, §4, §5, §6, §7
# T2 sequence (Q9Y5Y9 whole entry): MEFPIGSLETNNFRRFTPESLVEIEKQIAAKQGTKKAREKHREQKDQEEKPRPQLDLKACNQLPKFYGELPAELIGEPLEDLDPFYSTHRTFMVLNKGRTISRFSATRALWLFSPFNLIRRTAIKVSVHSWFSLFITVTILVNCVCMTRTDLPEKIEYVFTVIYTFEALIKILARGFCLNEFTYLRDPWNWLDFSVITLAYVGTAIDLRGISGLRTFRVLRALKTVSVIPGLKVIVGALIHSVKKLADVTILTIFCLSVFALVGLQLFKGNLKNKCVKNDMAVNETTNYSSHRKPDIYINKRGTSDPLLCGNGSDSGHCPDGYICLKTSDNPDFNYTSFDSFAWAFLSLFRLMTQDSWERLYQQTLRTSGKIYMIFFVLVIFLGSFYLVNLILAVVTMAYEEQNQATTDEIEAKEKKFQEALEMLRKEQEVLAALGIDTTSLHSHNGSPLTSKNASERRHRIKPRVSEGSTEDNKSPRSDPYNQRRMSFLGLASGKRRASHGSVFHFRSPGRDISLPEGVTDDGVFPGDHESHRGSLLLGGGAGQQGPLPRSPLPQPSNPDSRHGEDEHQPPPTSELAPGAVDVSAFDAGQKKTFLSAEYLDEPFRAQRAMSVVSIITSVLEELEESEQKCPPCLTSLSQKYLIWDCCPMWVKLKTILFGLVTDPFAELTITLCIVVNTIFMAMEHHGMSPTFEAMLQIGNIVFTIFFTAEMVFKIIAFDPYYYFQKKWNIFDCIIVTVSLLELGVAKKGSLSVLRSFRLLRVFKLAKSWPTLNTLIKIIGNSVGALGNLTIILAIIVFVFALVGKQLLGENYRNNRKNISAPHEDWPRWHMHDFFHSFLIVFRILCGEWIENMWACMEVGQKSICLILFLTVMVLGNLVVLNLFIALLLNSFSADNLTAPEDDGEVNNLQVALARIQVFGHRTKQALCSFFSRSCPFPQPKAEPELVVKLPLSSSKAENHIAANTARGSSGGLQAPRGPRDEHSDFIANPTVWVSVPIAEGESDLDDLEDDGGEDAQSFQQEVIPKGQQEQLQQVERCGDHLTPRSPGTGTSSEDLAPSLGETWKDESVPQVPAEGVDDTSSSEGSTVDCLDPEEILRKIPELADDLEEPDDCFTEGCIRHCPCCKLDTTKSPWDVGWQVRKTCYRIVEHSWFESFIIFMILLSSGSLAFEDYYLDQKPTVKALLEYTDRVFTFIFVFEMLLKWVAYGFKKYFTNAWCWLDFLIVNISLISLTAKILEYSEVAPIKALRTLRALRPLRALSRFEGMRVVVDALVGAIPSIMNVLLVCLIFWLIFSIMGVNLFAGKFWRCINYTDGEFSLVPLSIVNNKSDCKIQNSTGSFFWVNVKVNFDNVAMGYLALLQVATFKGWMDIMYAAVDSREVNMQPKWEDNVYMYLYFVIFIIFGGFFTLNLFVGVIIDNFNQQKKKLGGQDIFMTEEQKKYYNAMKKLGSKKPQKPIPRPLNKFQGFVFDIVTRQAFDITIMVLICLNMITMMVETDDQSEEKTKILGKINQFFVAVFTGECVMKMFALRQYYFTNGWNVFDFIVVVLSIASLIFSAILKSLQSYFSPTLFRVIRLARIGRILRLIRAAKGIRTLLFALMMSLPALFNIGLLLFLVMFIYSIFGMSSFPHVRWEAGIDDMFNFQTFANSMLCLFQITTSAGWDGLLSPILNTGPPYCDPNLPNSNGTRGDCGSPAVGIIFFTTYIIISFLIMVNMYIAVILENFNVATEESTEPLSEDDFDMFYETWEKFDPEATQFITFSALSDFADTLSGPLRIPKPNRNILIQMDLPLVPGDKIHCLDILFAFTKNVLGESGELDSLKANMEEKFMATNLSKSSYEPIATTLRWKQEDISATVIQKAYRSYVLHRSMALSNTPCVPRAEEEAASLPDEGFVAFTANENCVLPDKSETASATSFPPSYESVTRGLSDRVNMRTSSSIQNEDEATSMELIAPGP
# T1 sequence (Q15858 whole entry): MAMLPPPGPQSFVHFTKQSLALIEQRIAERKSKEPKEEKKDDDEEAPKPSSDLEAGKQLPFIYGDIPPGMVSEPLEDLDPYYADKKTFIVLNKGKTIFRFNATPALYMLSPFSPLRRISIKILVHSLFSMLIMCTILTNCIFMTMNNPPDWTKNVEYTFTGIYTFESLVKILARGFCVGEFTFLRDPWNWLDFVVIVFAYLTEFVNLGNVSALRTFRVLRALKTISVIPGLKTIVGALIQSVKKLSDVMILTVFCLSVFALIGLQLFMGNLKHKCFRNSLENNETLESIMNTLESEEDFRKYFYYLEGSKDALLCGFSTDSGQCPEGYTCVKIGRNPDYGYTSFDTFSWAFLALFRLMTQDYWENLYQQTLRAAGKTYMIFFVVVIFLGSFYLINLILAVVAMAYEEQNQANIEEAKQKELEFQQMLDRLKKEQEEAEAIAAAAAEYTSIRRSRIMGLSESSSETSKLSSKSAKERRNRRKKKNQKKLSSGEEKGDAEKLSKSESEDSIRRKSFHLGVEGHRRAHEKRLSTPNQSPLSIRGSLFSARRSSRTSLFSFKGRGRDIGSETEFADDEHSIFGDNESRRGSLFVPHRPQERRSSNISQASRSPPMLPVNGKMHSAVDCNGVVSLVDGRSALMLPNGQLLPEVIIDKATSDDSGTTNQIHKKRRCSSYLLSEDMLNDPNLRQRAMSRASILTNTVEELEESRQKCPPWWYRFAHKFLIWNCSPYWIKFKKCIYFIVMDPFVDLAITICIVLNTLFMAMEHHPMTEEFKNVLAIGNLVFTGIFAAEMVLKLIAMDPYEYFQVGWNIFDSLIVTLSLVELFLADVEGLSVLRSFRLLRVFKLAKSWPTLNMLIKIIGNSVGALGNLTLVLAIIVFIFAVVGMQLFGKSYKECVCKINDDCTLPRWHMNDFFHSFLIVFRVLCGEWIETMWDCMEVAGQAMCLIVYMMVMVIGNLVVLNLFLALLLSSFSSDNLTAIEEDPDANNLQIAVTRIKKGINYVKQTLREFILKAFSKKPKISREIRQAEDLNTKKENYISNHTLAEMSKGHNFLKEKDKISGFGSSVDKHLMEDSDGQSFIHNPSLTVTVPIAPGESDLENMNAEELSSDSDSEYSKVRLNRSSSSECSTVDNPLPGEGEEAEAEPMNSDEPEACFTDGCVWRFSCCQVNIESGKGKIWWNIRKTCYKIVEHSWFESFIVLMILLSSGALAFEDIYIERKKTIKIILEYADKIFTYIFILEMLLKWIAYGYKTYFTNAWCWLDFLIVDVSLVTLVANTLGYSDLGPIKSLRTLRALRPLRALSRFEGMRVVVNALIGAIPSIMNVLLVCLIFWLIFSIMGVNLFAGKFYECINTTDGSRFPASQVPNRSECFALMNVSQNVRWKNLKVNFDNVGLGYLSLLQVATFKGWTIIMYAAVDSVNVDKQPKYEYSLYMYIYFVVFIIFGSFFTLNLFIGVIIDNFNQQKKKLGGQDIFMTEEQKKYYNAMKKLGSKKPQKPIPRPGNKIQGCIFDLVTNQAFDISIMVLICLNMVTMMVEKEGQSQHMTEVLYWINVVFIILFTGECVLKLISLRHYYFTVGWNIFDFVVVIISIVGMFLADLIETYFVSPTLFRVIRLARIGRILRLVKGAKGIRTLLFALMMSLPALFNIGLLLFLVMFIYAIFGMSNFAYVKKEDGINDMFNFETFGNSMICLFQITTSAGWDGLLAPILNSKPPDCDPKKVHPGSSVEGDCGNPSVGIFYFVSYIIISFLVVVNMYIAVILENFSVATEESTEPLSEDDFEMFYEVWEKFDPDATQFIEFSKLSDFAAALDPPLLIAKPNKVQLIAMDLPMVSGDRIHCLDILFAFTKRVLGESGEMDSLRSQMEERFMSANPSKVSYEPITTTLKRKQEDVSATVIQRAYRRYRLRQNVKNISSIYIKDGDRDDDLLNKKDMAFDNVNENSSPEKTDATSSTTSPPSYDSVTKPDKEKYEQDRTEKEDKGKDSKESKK
SMILES,IC50 [1] [nM],IC50 [2] [nM]
CCOc1ccc(-c2cncc(C(=O)NCCc3ccccc3F)n2)cc1 [compound 6],< 500,< 500
CCOc1cc(C)c(-c2cncc(C(=O)NCCc3cc(OC)cc(OC)c3)n2)cn1 [compound 30],> 1000,> 1000
CCOc1ccc(-c2cncc(C(=O)NCCc3cc(OC)cnc3F)n2)cn1 [compound 34],500 to 1000,< 500
CCOc1ccc(-c2cncc(C(=O)NCCc3cccc(C(C)O)c3)n2)cn1 (centres unmarked) [compound 41],> 1000,> 1000
CCOc1ccc(-c2cncc(C(=O)NCCc3cc(C(C)O)ccc3F)n2)cn1 (centres unmarked) [compound 43],500 to 1000,< 500
CCOc1ccc(-c2cncc(C(=O)NCCc3cccc(OC)c3)n2)cn1 [compound 45],500 to 1000,< 500
O=C(NCCc1ccccc1F)c1cncc(-c2ccc(OC(F)F)nc2)n1 [compound 47],> 1000,> 1000
COc1ccc(-c2cncc(C(=O)NCCc3ccccc3F)n2)cn1 [compound 48],> 1000,> 1000
COc1cnc(F)c(CCNC(=O)c2cncc(-c3ccc(OC(F)F)cc3)n2)c1 [compound 50],> 1000,> 1000
COc1cnc(F)c(CCNC(=O)c2cncc(-c3ccc(OC(F)F)nc3)n2)c1 [compound 51],> 1000,> 1000
COc1cnc(F)c(CCNC(=O)c2cncc(-c3ccc(OC)nc3)n2)c1 [compound 53],500 to 1000,< 500
COc1cnc(F)c(CCNC(=O)c2cncc(-c3ccc(C(C)(C)O)cc3)n2)c1 [compound 56],> 1000,> 1000
COc1cnc(F)c(CCNC(=O)c2cncc(-c3ccc(C(C)(C)O)nc3)n2)c1 [compound 57],> 1000,> 1000
COc1cnc(F)c(CCNC(=O)c2cncc(-c3ccc(C(C)O)nc3)n2)c1 (centres unmarked) [compound 58],> 1000,> 1000
CCOc1ccc(-c2cncc(C(=O)Nc3nc4c(F)ccc(OC)c4s3)n2)cn1 [compound 61],> 1000,> 1000
CCOc1ccc(-c2cncc(C(=O)Nc3cn4c(F)ccc(OC)c4n3)n2)cn1 [compound 63],> 1000,> 1000
CCOc1ccc(-c2cncc(C(=O)Nc3nc4c(F)ccc(OC)c4[nH]3)n2)cn1 [compound 64],> 1000,> 1000
CCOc1ccc(-c2cncc(C(=O)Nc3nc4c(F)ccc(OC)c4o3)n2)cn1 [compound 65],> 1000,> 1000
CCOc1ccc(-c2cncc(C(=O)Nc3nc4c(OC)ccc(F)c4n3C)n2)cn1 [compound 66],> 1000,> 1000
CCOc1ccc(-c2cncc(C(=O)Nc3nc4c(F)ncc(OC)c4o3)n2)cn1 [compound 67],> 1000,> 1000
CCOc1ccc(-c2cncc(C(=O)Nc3cn4c(OC)ccc(F)c4n3)n2)cn1 [compound 68],> 1000,> 1000

# The remaining lines, values ahead:
IC50 [1] [nM],IC50 [2] [nM],SMILES
> 1000,500 to 1000,COc1cc(CCNC(=O)c2cncc(-c3ccc(OC(C)C)cc3)n2)cc(OC)c1 [compound 1]
500 to 1000,< 500,COc1cc(CCNC(=O)c2cncc(-c3ccc(OC(F)F)cc3)n2)cc(OC)c1 [compound 2]
> 1000,< 500,CCOc1ccc(-c2cncc(C(=O)NCCc3cc(OC)cc(OC)c3)n2)c(F)c1 [compound 3]
< 500,< 500,CCOc1ccc(-c2cncc(C(=O)NCCc3cc(OC)cc(OC)c3)n2)c(C)c1 [compound 4]
< 500,< 500,CCOc1ccc(-c2cncc(C(=O)NCCc3cccc(OC)c3)n2)cc1 [compound 5]
500 to 1000,< 500,CCOc1ccc(-c2cncc(C(=O)NCCc3cc(OC)cc(OC)c3)n2)cc1 [compound 10]
> 1000,< 500,CCOc1ccc(-c2cncc(C(=O)NCCc3cc(OC)cc(C(C)O)c3)n2)cc1 (centres unmarked) [compound 12]
> 1000,< 500,CCOc1ccc(-c2cncc(C(=O)NCCc3cccc(C(C)O)c3)n2)cc1 (centres unmarked) [compound 13]
> 1000,> 1000,CCOc1ccc(-c2cncc(C(=O)NCCc3cc(C(C)O)cnc3F)n2)cc1 (centres unmarked) [compound 14]
> 1000,< 500,CCOc1ccc(-c2cncc(C(=O)NCCc3cc(C(C)O)ccc3F)n2)cc1 (centres unmarked) [compound 15]
> 1000,< 500,CCOc1ccc(-c2cncc(C(=O)NCCc3cc(OC)cnc3F)n2)cc1 [compound 16]
500 to 1000,< 500,CCOc1ccc(-c2cncc(C(=O)NCCc3cc(OC)ccc3F)n2)cc1 [compound 17]
> 1000,< 500,CCOc1ccc(-c2cncc(C(=O)NCCc3cc(OC)cnc3C)n2)cc1 [compound 18]
> 1000,< 500,CCOc1ccc(-c2cncc(C(=O)NC[C@H](C)c3cc(OC)cc(OC)c3)n2)cc1 [compound 22]
> 1000,> 1000,CCOc1ccc(-c2cncc(C(=O)NC[C@H](O)c3cc(OC)cc(OC)c3)n2)cc1 [compound 24]
> 1000,> 1000,CCOc1ccc(-c2cncc(C(=O)NC[C@@H](O)c3cc(OC)cc(OC)c3)n2)cc1 [compound 25]
> 1000,> 1000,CCOc1ccc(-c2cncc(C(=O)NC[C@H](N)c3cc(OC)cc(OC)c3)n2)cc1 [compound 26]
< 500,< 500,CCOc1ccc(-c2cncc(C(=O)NC[C@@H](N)c3cc(OC)cc(OC)c3)n2)cc1 [compound 27]
500 to 1000,< 500,COc1cc(CCNC(=O)c2cncc(-c3ccc(OC(C)C)nc3)n2)cc(OC)c1 [compound 28]
500 to 1000,< 500,COc1cc(CCNC(=O)c2cncc(-c3ccc(OC(F)F)nc3)n2)cc(OC)c1 [compound 29]
> 1000,> 1000,CCOc1ccc(-c2cncc(C(=O)NCCc3cc(OC)cc(OC)c3)n2)c(C)n1 [compound 31]
> 1000,> 1000,CCOc1ccc(-c2cncc(C(=O)NCCc3cc(OC)cc(C(C)O)c3)n2)cn1 (centres unmarked) [compound 40]
> 1000,> 1000,CCOc1ccc(-c2cncc(C(=O)NCCc3cc(OC)cc(OC)c3)n2)cn1 [compound 44]
> 1000,> 1000,COc1ccc(-c2cncc(C(=O)NCCc3cc(OC)cc(OC)c3)n2)cc1 [compound 49]
> 1000,< 500,COc1ccc(-c2cncc(C(=O)NCCc3cc(OC)cnc3F)n2)cc1 [compound 52]
> 1000,< 500,COc1cc(OC)cc([C@H](O)CNC(=O)c2cncc(-c3ccc(OC(F)F)cc3)n2)c1 [compound 54]
> 1000,< 500,COc1ccc(-c2cncc(C(=O)NC[C@@H](O)c3cc(OC)cc(OC)c3)n2)cc1 [compound 55]
> 1000,> 1000,COc1cnc(F)c(CCNC(=O)c2cncc(-c3ccc(C(C)O)cc3)n2)c1 (centres unmarked) [compound 59]
500 to 1000,< 500,CCOc1ccc(-c2cncc(C(=O)Nc3cc4c(OC)cccc4[nH]3)n2)cc1 [compound 60]
,500 to 1000,[2H]C([2H])([2H])Oc1ccc(-c2cncc(C(=O)NC[C@@H](O)c3cc(OC([2H])([2H])[2H])cc(OC([2H])([2H])[2H])c3)n2)cc1 [compound 99]
